In patent US20070128217A1 (priority 2003, published 2007):

Key:
[1] = system: antibodies in sera from SARS patients (sera 1a, 1b, 2, 6, 37, 62, London, SARS-yellow, SARS-green); type: binding, human; set-up: Binding of serum 6 to linear peptides of protein X1 of SARS-CoV Urbani / Binding of serum 37 to linear peptides of protein X1 of SARS-CoV Urbani / Binding of serum 6 to looped/cyclic peptide (PEPSCAN-ELISA) / Binding of serum 37 to looped/cyclic peptide (PEPSCAN-ELISA) / Binding of serum 37 to looped/cyclic peptides of protein X1 of SARS-CoV Urbani / Binding of serum 6 to linear peptides of protein X2 / Binding of serum 37 to linear peptides of protein X2 / Binding of serum 37 to looped/cyclic peptides of protein X2 of SARS-CoV Urbani / Binding of serum 6 to linear peptides of protein M of SARS-CoV Urbani / Binding of serum 37 to linear peptides of protein M of SARS-CoV Urbani / Binding of serum 6 to looped/cyclic peptides of protein M of SARS-CoV Urbani / Binding of serum 37 to looped/cyclic peptides of protein M of SARS-CoV Urbani / Binding of serum 6 to linear peptides of protein X3 of SARS-CoV Urbani / Binding of serum 37 to linear peptides of protein X3 of SARS-CoV Urbani / Binding of serum 37 to looped/cyclic peptides of protein X3 of SARS-CoV Urbani / Binding of serum 6 to linear peptides of protein X4 of SARS-CoV Urbani / Binding of serum 37 to linear peptides of protein X4 of SARS-CoV Urbani / Binding of serum 37 to looped/cyclic peptides of protein X4 of SARS-CoV Urbani / Binding of serum 6 to linear peptides of protein X5 of SARS-CoV Urbani / Binding of serum 37 to linear peptides of protein X5 of SARS-CoV Urbani / Binding of serum 37 to looped/cyclic peptides of protein X5 of SARS-CoV Urbani / Binding of serum 6 to linear peptides of protein N of SARS-CoV Urbani / Binding of serum 37 to linear peptides of protein N of SARS-CoV Urbani / Binding of serum 6 to linear peptide (PEPSCAN-ELISA) / Binding of serum 1a to looped/cyclic peptides of protein N of SARS-CoV Urbani / Binding of serum 1b to looped/cyclic peptides of protein N of SARS-CoV Urbani / Binding of serum 2 to looped/cyclic peptides of protein N of SARS-CoV Urbani / Binding of serum 6 to looped/cyclic peptides of protein N of SARS-CoV Urbani / Binding of serum 37 to looped/cyclic peptides of protein N of SARS-CoV Urbani / Binding of serum 62 to looped/cyclic peptides of protein N of SARS-CoV Urbani / Binding of serum London to looped/cyclic peptides of protein N of SARS-CoV Urbani / Binding of serum SARS-green to looped/cyclic peptides of protein N of SARS-CoV Urbani: unit not given here
[2] = system: control sera (pooled serum of ten healthy LUMC hospital workers; commercial negative donor pooled serum from the Dutch bloodbank); type: binding, human; set-up: Binding of Control serum LUMC to linear peptides / Binding of Control serum Blood-bank to linear peptides / Binding of Control serum LUMC to looped peptides / Binding of Control Serum Blood-Bank to Looped peptides / Binding of Control serum LUMC to linear peptides of the protein M of SARS-CoV Urbani / Binding of Control serum Blood-bank to linear peptides of the protein M of SARS-CoV Urbani / Binding of Control serum LUMC to looped peptides of the protein M of SARS-CoV Urbani / Binding of Control Serum Blood-Bank to Looped peptides of the protein M of SARS-CoV Urbani: unit not given here
[3] = system: rabbit serum obtained by immunizing a rabbit with the SARS-CoV strain Frankfurt 1; type: binding; set-up: Binding of a rabbit serum to linear peptides / Binding of a rabbit serum to looped peptides / Rabbit serum linear peptides / Rabbit serum looped peptides / Binding of a rabbit serum to linear peptides of protein N of SARS-CoV Urbani (Rabbit serum linear peptides) / Binding of a rabbit serum to looped/cyclic peptides of protein N of SARS-CoV Urbani (Rabbit serum looped peptides): unit not given here
[4] = system: recombinant human anti-SARS-CoV antibody 03-018; type: binding; set-up: Binding of antibody 03-018 to linear peptides of the N protein of SARS-CoV Urbani / Binding of antibody 03-018 to looped/cyclic peptides of the N protein of SARS-CoV Urbani: unit not given here

Sequence | Binding of serum 1a to linear peptides of protein N of SARS-CoV Urbani [1] | Binding of serum 1a to looped/cyclic peptides of protein N of SARS-CoV Urbani [1] | Binding of serum 1b to linear peptides of protein N of SARS-CoV Urbani [1] | Binding of serum 1b to looped/cyclic peptides of protein N of SARS-CoV Urbani [1] | Binding of serum 2 to linear peptides of protein N of SARS-CoV Urbani [1] | Binding of serum 2 to looped/cyclic peptides of protein N of SARS-CoV Urbani [1] | Binding of serum 6 to looped/cyclic peptides of protein N of SARS-CoV Urbani [1] | Binding of serum 37 to looped/cyclic peptides of protein N of SARS-CoV Urbani [1] | Binding of serum 62 to looped/cyclic peptides of protein N of SARS-CoV Urbani [1] | Binding of serum London to looped/cyclic peptides of protein N of SARS-CoV Urbani [1] | Binding of serum SARS-green to looped/cyclic peptides of protein N of SARS-CoV Urbani [1] | Binding of serum SARS-yellow to looped/cyclic peptides of protein N of SARS-CoV Urbani [1] | Binding of Control Serum Blood-Bank to Looped peptides [2] | Binding of Control serum Blood-bank to linear peptides [2] | Binding of Control serum LUMC to linear peptides [2] | Binding of Control serum LUMC to looped peptides [2] | Binding of a rabbit serum to linear peptides of protein N of SARS-CoV Urbani (Rabbit serum linear peptides) [3] | Binding of a rabbit serum to looped/cyclic peptides of protein N of SARS-CoV Urbani (Rabbit serum looped peptides) [3] | Binding of antibody 03-018 to linear peptides of the N protein of SARS-CoV Urbani [4] | Binding of antibody 03-018 to looped/cyclic peptides of the N protein of SARS-CoV Urbani [4] | further results
GPEASLPYGANKEGI | 0.3 | 0.3 | 0.2 | 0.2 | 0.3 | 0.4 | 0.2 | 0.6 | 0.5 | 0.4 | 0.5 | 0.3 | 0.6 | 0.9 | 0.9 | 0.8 | 0.1 | 0.3 | 0.1 | 0.2 | Binding of serum 6 to linear peptides of protein N of SARS-CoV Urbani [1]: 0.3; Binding of serum 37 to linear peptides of protein N of SARS-CoV Urbani [1]: 0.8; Binding of serum 62 to linear peptides of protein N of SARS-CoV Urbani [1]: 0.9; Binding of serum London to linear peptides of protein N of SARS-CoV Urbani [1]: 0.6; Binding of serum SARS-green to linear peptides of protein N of SARS-CoV Urbani [1]: 0.7; Binding of serum SARS-yellow to linear peptides of protein N of SARS-CoV Urbani [1]: 0.6
GRNGARPKQRRPQGL | 0.2 | 0.2 | 0.1 | 0.1 | 0.2 | 0.2 | 0.2 | 0.4 | 0.3 | 0.3 | 0.2 | 0.3 | 0.5 | 0.7 | 0.6 | 0.5 | 0.2 | 0.7 | 0.1 | 0.2 | Binding of serum 6 to linear peptides of protein N of SARS-CoV Urbani [1]: 0.2; Binding of serum 37 to linear peptides of protein N of SARS-CoV Urbani [1]: 0.7; Binding of serum 62 to linear peptides of protein N of SARS-CoV Urbani [1]: 0.6; Binding of serum London to linear peptides of protein N of SARS-CoV Urbani [1]: 0.4; Binding of serum SARS-green to linear peptides of protein N of SARS-CoV Urbani [1]: 0.4; Binding of serum SARS-yellow to linear peptides of protein N of SARS-CoV Urbani [1]: 0.4
GRRGPEQTQGNFGDQ | – | 0.4 | – | 0.3 | – | 0.4 | 0.2 | 0.5 | 0.6 | 0.5 | 0.4 | 0.5 | 0.6 | 0.6 | 0.6 | 0.6 | 0.1 | 0.2 | 0.1 | 0.2 | Recognition of the peptide by sera of SARS-CoV infected individuals, and form (linear, looped/cyclic) in which it is recognized [1]: recognized in linear form
